Our source for the IC50 and EC50 values is patent US8017629B2, “Compounds and uses thereof in modulating amyloid β” (Neurogenetic Pharmaceuticals, Inc., priority 2003, dated 2011).

A value given as a limit tells only on which side of the number the result lay.

For one assay, the target named is BACE Enzyme (Homo sapiens, UniProt P56817). Description: BACE Enzyme Potency (Table 12). It counts as biochemical.
Sequence of BACE Enzyme (P56817 46-501, species assumed): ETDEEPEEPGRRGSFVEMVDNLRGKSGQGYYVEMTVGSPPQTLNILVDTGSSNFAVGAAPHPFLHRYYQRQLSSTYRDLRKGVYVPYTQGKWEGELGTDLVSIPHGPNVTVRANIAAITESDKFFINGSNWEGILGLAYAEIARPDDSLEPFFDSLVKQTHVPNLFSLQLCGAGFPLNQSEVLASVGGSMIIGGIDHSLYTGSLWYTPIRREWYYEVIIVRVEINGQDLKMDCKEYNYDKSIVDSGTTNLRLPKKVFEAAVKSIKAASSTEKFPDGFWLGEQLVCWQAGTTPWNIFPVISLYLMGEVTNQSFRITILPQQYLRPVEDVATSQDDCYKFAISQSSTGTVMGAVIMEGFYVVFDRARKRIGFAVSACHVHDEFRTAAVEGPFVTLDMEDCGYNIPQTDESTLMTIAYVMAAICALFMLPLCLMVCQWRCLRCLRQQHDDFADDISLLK
Conditions: not given
As to `COc1ccc(-c2csc(Nc3ccc(N(C)C)cc3)n2)c(OC)c1` [Compound 355], the IC50 lay in the range of 1.1 to 5 µM.

Still in this assay, the particulars now being: Table 12; class symbols; read-out: BACE Enzyme Potency.
Consider `COc1ccc(-c2csc(Nc3ccc(OC)c(OC)c3)n2)c(OC)c1` [Compound 353], for which the IC50 was 0.2 to 1 µM.
Regarding `COc1cc(Nc2nc(-c3ccc(F)cc3)cs2)cc(OC)c1OC` [Compound 354], the IC50 is 0.2 to 1 µM.
For `COc1cc(Nc2nc(-c3ccc(N4CCN(C)CC4)cc3)cs2)cc(OC)c1OC` [Compound 356], the IC50 was 0.2 to 1 µM.
On the same count and under the same terms, the result for `CN1CCN(c2ccc(-c3csc(Nc4ccc5c(c4)OCO5)n3)cc2)CC1` [Compound 357] reads 0.2 to 1 µM.
Consider `CN1CCN(c2ccc(-c3csc(Nc4ccc(N(C)C)cc4)n3)cc2)CC1` [Compound 358], for which the IC50 was 0.2 to 1 µM.
For the compound `CN1CCN(c2ccc(-c3csc(Nc4ccc5ccccc5c4)n3)cc2)CC1` [Compound 359], the IC50 fell in the range of 0.2 to 1 µM.
For `CN1CCN(c2ccc(-c3csc(Nc4cccc5cccnc45)n3)cc2)CC1` [Compound 360], the IC50 was under 0.2 µM.
Still for that read-out and setting: the same measure for `Brc1ccc(Nc2nc(-c3ccc(N4CCCC4)cc3)cs2)cc1` [Compound 361]: 0.2 to 1 µM; for `COc1ccc(-c2csc(Nc3ccc(Br)cc3)n2)c(OC)c1` [Compound 362]: 0.2 to 1 µM.
Same read-out and setting: the same measure for `CCc1ccc(Nc2nc(-c3ccc(N4CCCC4)cc3)cs2)cc1` [Compound 363]: 0.2 to 1 µM; for `CN1CCN(c2ccc(-c3csc(Nc4ccc5c(c4)OCCO5)n3)cc2)CC1` [Compound 364]: under 0.2 µM; for `COc1cccc(CNc2nc(-c3ccc(N4CCN(C)CC4)cc3)cs2)c1` [Compound 365]: 5.1 to 10 µM.
`CN1CCN(c2ccc(-c3csc(Nc4ccc(Cl)c(Cl)c4)n3)cc2)CC1` [Compound 366]: the IC50 was under 0.2 µM.
Turning to `CN1CCN(c2ccc(-c3csc(Nc4ccc5c(cnn5C)c4)n3)cc2)CC1` [Compound 367], the IC50 fell in the range of 1.1 to 5 µM.
For the compound `CN1CCN(c2ccc(-c3csc(Nc4ccc5[nH]ncc5c4)n3)cc2)CC1` [Compound 368], the IC50 lay within 1.1 to 5 µM.
Consider `CN1CCN(c2ccc(-c3csc(Nc4ccc(Oc5ccccc5)cc4)n3)cc2)CC1` [Compound 369], for which the IC50 was under 0.2 µM.
With `c1cn(-c2ccc(-c3csc(Nc4ccc5[nH]ccc5c4)n3)cc2)cn1` [Compound 370], the IC50 fell in the range of 0.2 to 1 µM.
Still for that read-out and setting: the same measure for `CSc1cccc(Nc2nc(-c3ccc(-n4ccnc4)cc3)cs2)c1` [Compound 371]: 0.2 to 1 µM; for `CSc1cccc(Nc2nc(-c3ccc(N4CCN(C)CC4)cc3)cs2)c1` [Compound 372]: 0.2 to 1 µM; for `CC(C)N(c1ccccc1)c1ccc(Nc2nc(-c3ccc(-n4ccnc4)cc3)cs2)cc1` [Compound 373]: 0.2 to 1 µM.
The same measure, in the same setting: the result for `COc1ccc(-c2csc(Nc3ccc4[nH]cnc4c3)n2)c(OC)c1` [Compound 374] reads 0.2 to 1 µM; that for `CCN1CCN(c2ccc(-c3csc(Nc4ccc5c(c4)OCO5)n3)cc2)CC1` [Compound 375], 1.1 to 5 µM.
For `CN1CCN(c2ccc(-c3csc(Nc4cccc(Cl)c4)n3)cc2)CC1` [Compound 376], the IC50 lay in the range of 0.2 to 1 µM.
For the compound `c1cc(Nc2nc(-c3ccc4c(c3)OCO4)cs2)c2cn[nH]c2c1` [Compound 377], the IC50 was in the range of 0.2 to 1 µM.

The next assay concerns Aβ42 levels in the extracellular medium. Description: FRET (HTRF) assay, Aβ42 level of the extracellular medium of SH-SY5Y-APP cells. Particulars: Homo sapiens, concentration at which reduction of Aβ42 level was half of the maximum reduction, read-out: Ab42 Potency. In kind it is cell-based.
Turning to `Cc1ccc(C)c(Nc2nc(-c3ccc(-n4ccnc4)cc3)cs2)c1` [Compound 302], the EC50 fell in the range of 0.2 to 1 µM.
With `Cc1ccc(C)c(Nc2nc(-c3ccc(-n4cnc(C)c4)cc3)cs2)c1` [Compound 303], the EC50 is under 0.2 µM.
Regarding `Cc1ccc(N(C)CC2CC2)cc1Nc1nc(-c2ccc(-n3ccnc3)cc2)cs1` [Compound 304], the EC50 was under 0.2 µM.
The same measure, in the same setting: the same measure for `Cc1cn(-c2ccc(-c3csc(Nc4cc(N(C)CC5CC5)ccc4C)n3)cc2)cn1` [Compound 305]: under 0.2 µM; for `Cc1cn(-c2ccc(-c3csc(Nc4cc(N(C)CC5CC5)ccc4C)n3)cn2)cn1` [Compound 306]: under 0.2 µM.
On the same count and under the same terms, the result for `CCN(CC)c1ccc(C)c(Nc2nc(-c3ccc(-n4cc(C)cn4)cc3)cs2)c1` [Compound 307] reads 1.1 to 5 µM.
In the case of `COc1cc(C)c(Nc2nc(-c3ccc(-n4cc(C)cn4)cc3)cs2)cc1C(C)C` [Compound 308], the EC50 was 0.2 to 1 µM.
For the compound `CCN(CC)c1ccc(C)c(Nc2nc(-c3ccc(-n4cnc(C)c4)c(F)c3)cs2)c1` [Compound 309], the EC50 is under 0.2 µM.
As for `COc1cc(C)c(Nc2nc(-c3ccc(-n4cnc(C)c4)c(F)c3)cs2)cc1C(C)C` [Compound 310], the EC50 is under 0.2 µM.
Same read-out and setting: the same measure for `CCN(CC)c1ccc(C)c(Nc2nc(-c3ccc(-c4ccoc4)cc3)cs2)c1` [Compound 311]: 1.1 to 5 µM; for `CCN(CC)c1ccc(Nc2nc(-c3ccc(-c4ncc(Br)s4)cc3)cs2)c(C)c1` [Compound 312]: 0.2 to 1 µM; for `CCN(CC)c1ccc(F)c(Nc2nc(-c3ccc(-n4cnc(C)c4)cc3)cs2)c1` [Compound 313]: under 0.2 µM.
Consider `CCN(CC)c1ccc(F)c(Nc2nc(-c3ccc(-n4cnc(C)c4)nc3)cs2)c1` [Compound 314], for which the EC50 is under 0.2 µM.
Same read-out and setting: the same measure for `Cc1cn(-c2ccc(-c3csc(Nc4cc(N(C)CC5CC5)ccc4C)n3)cc2F)cn1` [Compound 315]: under 0.2 µM; for `Cc1ccc(C)c(Nc2nc(-c3ccc(-n4cnc(Br)c4)cc3)cs2)c1` [Compound 316]: under 0.2 µM.
In the case of `CCCCN(CC)c1ccc(C)c(Nc2nc(-c3ccc(-n4cnc(C)c4)nc3)cs2)c1` [Compound 317], the EC50 lay within 0.2 to 1 µM.
On to `CCOc1cc(C)c(Nc2nc(-c3ccc(-n4ccnc4)nc3)cs2)cc1C` [Compound 318], for which the EC50 was under 0.2 µM.
`COc1cc(C)c(Nc2nc(-c3ccc(-n4ccnc4)nc3)cs2)cc1C(C)C` [Compound 319]: the EC50 is under 0.2 µM.
Consider `CCN(CC)c1cc(Nc2nc(-c3ccc(-n4ccnc4)nc3)cs2)c(C)cc1C` [Compound 320], for which the EC50 is under 0.2 µM.
As to `COc1cc(C)c(Nc2nc(-c3ccc(N4CCN(C)CC4)cc3)cs2)cc1C(C)C` [Compound 321], the EC50 was 0.2 to 1 µM.
Consider `CCOc1cc(C)c(Nc2nc(-c3ccc(N4CCN(C)CC4)cc3)cs2)cc1C` [Compound 322], for which the EC50 lay in the range of 1.1 to 5 µM.
Regarding `Cc1ccc(-n2cccc2)cc1Nc1nc(-c2ccc(N3CCN(C)CC3)cc2)cs1` [Compound 323], the EC50 lay within 1.1 to 5 µM.
Consider `Cc1ccc(C(C)C)cc1Nc1nc(-c2ccc(-n3ccnc3)cc2)cs1` [Compound 324], for which the EC50 was under 0.2 µM.
Take `Cc1ccc(C(C)C)cc1Nc1nc(-c2ccc(-n3ccnc3)nc2)cs1` [Compound 325]: the EC50 was 1.1 to 5 µM.
As for `Cc1cn(-c2ccc(-c3csc(Nc4cc(C(C)C)ccc4C)n3)cc2)cn1` [Compound 326], the EC50 was under 0.2 µM.
The same measure, in the same setting: the same measure for `Cc1cn(-c2ccc(-c3csc(Nc4cc(C(C)C)ccc4C)n3)cn2)cn1` [Compound 327]: under 0.2 µM; for `CN1CCN(c2ccc(-c3csc(Nc4ccc5c(c4)OCO5)n3)cn2)CC1` [Compound 328]: 0.2 to 1 µM; for `CCN(CC)c1ccc(Nc2nc(-c3ccc(N4CCN(C)CC4)nc3)cs2)c(C)c1` [Compound 329]: 10.1 to 30 µM.
Same read-out and setting: the same measure for `CN1CCN(c2ccc(-c3csc(Nc4ccc(Cl)c(Cl)c4)n3)cn2)CC1` [Compound 330]: 1.1 to 5 µM; for `Cc1cn(-c2ccc(-c3csc(Nc4cc5cn[nH]c5cc4C)n3)cn2)cn1` [Compound 331]: 5.1 to 10 µM.
Consider `CCN(CC)c1cc(Nc2nc(-c3ccc(N4CCN(C)CC4)nc3)cs2)c(C)cc1C` [Compound 332], for which the EC50 was 1.1 to 5 µM.
With `CN1CCN(c2ccc(-c3csc(Nc4cccc5ccccc45)n3)cn2)CC1` [Compound 333], the EC50 was 0.2 to 1 µM.
For `CCN(C)c1cc(Nc2nc(-c3ccc(-n4ccnc4)cc3)cs2)c(C)cc1C` [Compound 334], the EC50 was under 0.2 µM.
The same measure, in the same setting: the result for `CCN(C)c1cc(Nc2nc(-c3ccc(-n4cnc(C)c4)cc3)cs2)c(C)cc1C` [Compound 335] reads under 0.2 µM; that for `CCN(C)c1cc(Nc2nc(-c3ccc(-n4cnc(C)c4)nc3)cs2)c(C)cc1C` [Compound 336], under 0.2 µM; that for `CCCN(CC)c1ccc(C)c(Nc2nc(-c3ccc(-n4cnc(C)c4)cc3)cs2)c1` [Compound 337], under 0.2 µM.
Turning to `COc1ccc(-c2coc(Nc3ccccc3)n2)cc1` [Compound 338], the EC50 was in the range of 10.1 to 30 µM.
Turning to `COc1ccc(Nc2nc(-c3ccc(Cl)cc3)co2)cc1` [Compound 339], the EC50 was in the range of 1.1 to 5 µM.
`COc1ccc(Nc2nc(-c3ccc(-n4ccnc4)cc3)co2)cc1` [Compound 340]: the EC50 fell in the range of 1.1 to 5 µM.
As for `CCN(CC)c1ccc(C)c(Nc2nc(-c3cnc(-n4cnc(C)c4)nc3)cs2)c1` [Compound 341], the EC50 was under 0.2 µM.
Still for that read-out and setting: the result for `CCN(CC)c1ccc(Nc2nc(-c3cnc(-n4cnc(C)c4)nc3)cs2)c(C)c1` [Compound 342] reads under 0.2 µM.
With `CCN(CC)c1cc(Nc2nc(-c3cnc(-n4cnc(C)c4)nc3)cs2)c(C)cc1C` [Compound 343], the EC50 was under 0.2 µM.
As for `Cc1ccc(Nc2nc(-c3ccc(Br)cc3)co2)c(C)c1` [Compound 344], the EC50 fell in the range of 1.1 to 5 µM.
As for `Cc1ccc(Nc2nc(-c3ccc(-n4ccnc4)cc3)co2)c(C)c1` [Compound 345], the EC50 is 5.1 to 10 µM.
Still for that read-out and setting: the same measure for `CCN(CC)c1ccc(C)c(Nc2nc(-c3ccc(-n4cc(C)nn4)cc3)cs2)c1` [Compound 346]: under 0.2 µM.
On to `CCN(C)c1ccc(C)c(Nc2nc(-c3ccc(-n4cnc(C)c4)cc3)cs2)c1` [Compound 347], for which the EC50 is under 0.2 µM.
The same measure, in the same setting: the same measure for `CCCN(C)c1ccc(C)c(Nc2nc(-c3ccc(-n4cnc(C)c4)cc3)cs2)c1` [Compound 348]: under 0.2 µM.
Consider `Cc1cn(-c2ncc(-c3csc(Nc4cc(C)c(C)cc4C)n3)cn2)cn1` [Compound 349], for which the EC50 is under 0.2 µM.
`CCN(CC1CC1)c1cc(Nc2nc(-c3ccc(-n4cnc(C)c4)cc3)cs2)c(C)cc1C` [Compound 350]: the EC50 was under 0.2 µM.
On to `COc1ccc(C)c(Nc2nc(-c3ccc(-n4ccnc4)cc3)cs2)c1` [Compound 351], for which the EC50 is under 0.2 µM.
Consider `COc1ccc(C)c(Nc2nc(-c3ccc(-n4cnc(C)c4)cc3)cs2)c1` [Compound 352], for which the EC50 is under 0.2 µM.
